# According to article PMC10461100, “Transcuticular calcium imaging as a tool for the functional study of insect odorant receptors” (Frontiers in Molecular Neuroscience, 2023):
# How the values were obtained:
# SlitOR29 = system: T1, SlitOR29; assay: transcuticular calcium imaging (GCaMP6s), dose-response; design: species or system Spodoptera littoralis; details: volatile stimulus; dose loaded on filter paper (in mineral oil), not a concentration; in vivo fly antenna; 1 s puff
# T1 construct: full-length UAS transgene in Drosophila melanogaster ab3A basiconic neurons in place of DmelOR22a/b; endogenous Drosophila Orco; GCaMP6s reporter co-expressed; with Odorant receptor coreceptor (endogenous, Drosophila melanogaster)
# SlitOR6 = target: T2, SlitOR6 (Spodoptera littoralis, UniProt I6LJY9); assay: transcuticular calcium imaging (GCaMP6m), dose-response; details: volatile stimulus; dose loaded on filter paper (in hexane), not a concentration; in vivo fly antenna; 1 s puff
# T2 construct: gene OR6; full-length UAS transgene in Drosophila melanogaster at1 trichoid neurons in place of DmelOR67d; endogenous Drosophila Orco; GCaMP6m reporter co-expressed; with Odorant receptor coreceptor (endogenous, Drosophila melanogaster)
# T2 sequence (I6LJY9 1-432): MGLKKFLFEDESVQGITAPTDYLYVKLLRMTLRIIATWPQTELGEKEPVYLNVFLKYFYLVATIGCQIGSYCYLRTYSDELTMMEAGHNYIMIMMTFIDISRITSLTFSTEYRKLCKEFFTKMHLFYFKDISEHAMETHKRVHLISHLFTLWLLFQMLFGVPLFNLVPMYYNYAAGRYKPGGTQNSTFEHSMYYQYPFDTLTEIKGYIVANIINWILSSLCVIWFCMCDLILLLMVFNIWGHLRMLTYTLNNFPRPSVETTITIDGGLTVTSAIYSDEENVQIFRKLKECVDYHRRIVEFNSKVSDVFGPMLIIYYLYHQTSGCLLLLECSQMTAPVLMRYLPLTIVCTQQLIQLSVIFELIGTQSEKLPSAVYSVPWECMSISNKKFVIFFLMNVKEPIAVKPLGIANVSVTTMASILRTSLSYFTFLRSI
# T2 sequence (Q9VNB5 1-486 partner): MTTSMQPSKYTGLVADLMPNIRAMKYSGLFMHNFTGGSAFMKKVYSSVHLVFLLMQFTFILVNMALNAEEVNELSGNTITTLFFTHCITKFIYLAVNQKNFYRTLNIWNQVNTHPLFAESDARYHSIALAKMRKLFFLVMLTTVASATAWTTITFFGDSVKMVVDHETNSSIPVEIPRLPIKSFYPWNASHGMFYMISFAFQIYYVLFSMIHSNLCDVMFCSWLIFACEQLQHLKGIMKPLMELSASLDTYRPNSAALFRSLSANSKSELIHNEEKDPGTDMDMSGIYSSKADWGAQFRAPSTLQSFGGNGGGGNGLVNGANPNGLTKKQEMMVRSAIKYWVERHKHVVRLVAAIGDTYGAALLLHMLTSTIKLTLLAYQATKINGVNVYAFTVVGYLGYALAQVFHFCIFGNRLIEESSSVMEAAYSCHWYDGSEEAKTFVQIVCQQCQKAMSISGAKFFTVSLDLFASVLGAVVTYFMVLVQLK
EC50 (SlitOR29) [µg],EC50 (SlitOR6) [µg],SMILES
11.52 ± 0.70,,CC/C=C\CCOC(C)=O [(Z)-3-hexenyl acetate]
1.27 ± 0.37,,C=C/C(C)=C/CC=C(C)C [(E)-ocimene]
,0.96 ± 0.14,"C/C=C/C/C=C\CCCCCCCCOC(C)=O [(Z,E)-9,12-tetradecadienyl acetate]"
